Laboratory results: paper PMC6770071, “XIAP as a Target of New Small Organic Natural Molecules Inducing Human Cancer Cell Death” (Cancers, 2019)
Converted amounts (≈) assume the structure as drawn.

Tests used:
Format in all cases: cell-based, human
[1] = tested on: MCF7 cells; assay: TUNEL assay; conditions: MCF7, 12 h; gibbilimbol B/eriopodol A 30 µg/mL, erioquinol 10 µg/mL
Description: Using published protocols, MCF7 or U373 cells cultured in 120-mm coverslips were fixed in 4% paraformaldehyde in 0.1 M phosphate buffer (PB), pH 7.4, for 10 min. The TUNEL method (DeadEnd Fluorometric TUNEL System, Promega) was used to assay apoptosis, according to the manufacturer’s protocol. DAPI (nuclei detection) staining was also performed.

[2] = tested on: MCF7 cells; assay: Bright field microscopy and DAPI staining of cell morphology; conditions: MCF7, 6 h; for cell morphology, bright field microscopy: increasing concentrations; for nuclei, DAPI staining: gibbilimbol B/eriopodol A 30 µg/mL, erioquinol 10 µg/mL
Description: (§1) Using published protocols, MCF7 or U373 cells cultured in 120-mm coverslips were fixed in 4% paraformaldehyde in 0.1 M PB, pH 7.4, for 10 min. Cells were pre-incubated for 1 h min with 5% of normal goat serum (Life Technologies, Monza, Italy) in 0.1 M PB (pH 7.4) containing 0.1% Triton X-100, before overnight incubation with the rabbit monoclonal anti-cleaved caspase 7 (Cell Signaling Technology, Danvers, MA, USA). In double-label immunofluorescence experiments, the mouse monoclonal anti-cytochrome c primary antibody (Cell Signaling Technology) was used in conjunction with the rabbit monoclonal primary antibody directed to COX IV (Cell Signaling Technology). For fluorescence detection, coverslips were stained with the appropriate Alexa Fluor secondary antibodies (Life Technologies) and mounted on glass slides in a ProLong Gold Antifade Mountant (Life Technologies). DAPI and/or fluorescein phalloidin (cytoskeleton detection) staining was also used. Cells were analysed with a DMI4000 B automated inverted microscope equipped with a DCF310 digital camera (Leica Microsystems, Wetzlar, Germany). When indicated, confocal imaging was performed with a TCS SP8 System (Leica Microsystems). Image acquisitions were controlled by the Leica Application Suite X.

[3] = tested on: U373 cells; assay: TMRM mitochondrial membrane potential analysis, U373 cells; conditions: U373, increasing time; gibbilimbol B/eriopodol A 30 µg/mL, erioquinol 10 µg/mL
Description: Using published protocols, mitochondria of MCF7 and U373 cells were labeled using TMRM, a voltage-sensitive cationic lipophilic dye, partitioning and accumulating in the mitochondrial matrix based upon the Nernst equation. After treatments, cells were trypsinised, counted and incubated with 100 nM TMRM for 30 min at 37 °C. Fluorescence was measured by using a Glomax Multi Detection System microplate reader (Promega), excitation wavelength: 525 nm; emission wavelength: 580–640 nm). After background subtraction, the data were normalised on cell number.

[4] = tested on: caspase 9 and 7; assay: Cleaved-caspase 9 and 7 western blot / immunofluorescence in MCF7 cells; conditions: gibbilimbol B/eriopodol A 30 µg/mL, erioquinol 10 µg/mL; for cleaved-caspase 7 staining, immunofluorescence: MCF7, 3 and 6 h; for caspase activation, western blot: MCF7, 3 h and 6 h
Description: as §1
(§2) Using published protocols, MCF7 and MCF10 cells were homogenised in RIPA lysis buffer, supplemented with a cocktail of protease inhibitors (cOmplete; Roche Diagnostics, Milano, Italy). Equal amounts of proteins were separated by 4–20% SDS-polyacrylamide gel electrophoresis (Criterion TGX Stain-free precast gels and Criterion Cell system; Bio-Rad, Hercules, CA, USA) and transferred onto nitrocellulose membrane using a Bio-Rad Trans-Blot Turbo System. When indicated, the membranes were probed using the rabbit monoclonal anti-cleaved caspase 7 and anti-XIAP (Cell Signaling Technology) primary antibodies. After the incubation with the appropriate horseradish-peroxidase-conjugated secondary antibody (Cell Signaling Technology), bands were visualised using the Clarity Western ECL substrate with a ChemiDoc MP imaging system (Bio-Rad). To monitor for potential artefacts in loading and transfer among samples in different lanes, the blots were routinely treated with the Restore Western Blot Stripping Buffer (ThermoFisher Scientific) and re-probed with the goat anti-Lactate dehydrogenase (LDH)-A (Santa Cruz Biotechnology) and the mouse anti-vinculin primary antibodies. The stain-free gel was used as loading control as well. When appropriated, bands were quantified for densitometry using the Bio-Rad Image Lab software.

[5] = tested on: XIAP; assay: XIAP expression by real-time PCR and western blot in MCF7 cells; conditions: MCF7, increasing times, gibbilimbol B/eriopodol A 30 μg/mL, erioquinol 10 µg/mL; for XIAP mRNA levels: real-time PCR; for XIAP protein levels: western blot
Text: as §2
The analysis of mRNA expression was performed as previously described. Briefly, total RNA from MCF7 cells was extracted with the High Pure RNA Isolation Kit (Roche Applied Science, Mannheim, Germany), according to the manufacturer’s protocol. First-strand cDNA was generated from 1 μg of total RNA using iScript Reverse Transcription Supermix (Bio-Rad). Primer pairs (Eurofins Genomics, Milano, Italy) for XIAP (NM_001167; forward ACCGTGCGGTGCTTTAGTT, reverse […]) and β-actin (NM_001101; forward […], reverse CACCTTCTACAAT GAGCTGCGTGTG) were designed to hybridise to unique regions of the appropriate gene sequence. PCR was performed using SsoAdvanced Universal SYBR Green Supermix and the CFX96 Touch Real-Time PCR Detection System (Bio-Rad). The fold change was determined relative to the selected control sample after normalising to β-actin (internal standard) by the formula 2^−ΔΔCT.

[6] = tested on: U373 cells; assay: Confocal co-localisation of cytochrome c with COX IV, U373 cells; conditions: U373, 3 h; gibbilimbol B/eriopodol A 30 µg/mL, erioquinol 10 µg/mL
Description: as §1

[7] = tested on: U373 cells; assay: MTT cell viability assay, U373 cells; conditions: for IC50: Homo sapiens, U373 MG, MTT, 24 h, read-out: IC50 (μg/mL) U373 Cells
Description: Human U373 glioma, MCF7 breast cancer, A549 lung cancer and PC-3 prostate cancer cells were grown in Dulbecco’s Modified Eagle Medium (DMEM), supplemented with 10% foetal bovine serum, 2 mM glutamine, 100 U/mL penicillin/streptomycin, at 37 °C in a humidified atmosphere containing 5% CO2 (logarithmic growth phase, routine passages every 3 days). The human breast epithelial cell line MCF10 was cultured in DMEM/F12 Ham’s Mixture supplemented with 5% horse serum, epithelial growth factor 20 ng/mL, insulin 10 μg/mL, hydrocortisone 0.5 mg/mL, cholera toxin 100 ng/mL, and 100 U/mL penicillin/streptomycin. HUVEC were grown in EGM-2 Endothelial Cell Growth Medium-2 BulletKit (Lonza, Basel, Switzerland), according to the manufacturer’s protocol.
U373, MCF7, A549, PC-3, HUVEC, and MCF10 cell viability was determined by MTT assay using published protocols. MTT absorbance was quantified spectrophotometrically using a Glomax Multi Detection System microplate reader (Promega, Milano, Italy).
Statistical significance of raw data between the groups in each experiment was evaluated using unpaired Student’s t-test (single comparisons) or one-way ANOVA followed by the Newman-Keuls post-test (multiple comparisons). The IC50 and Emax concentration were determined by non-linear regression curve analysis of the concentration-effect responses. Potency values among concentration-response curves were compared with the F-test. Data belonging from different experiments were represented and averaged in the same graph. The GraphPad Prism software package (GraphPad Software, San Diego, CA, USA) was used. The results were expressed as means ± standard error of mean (SEM) of the indicated n values.

Row | Compound | TUNEL staining (DNA fragmentation) [1] | cell morphology, bright field microscopy [2] | nuclei, DAPI staining [2] | TMRM fluorescence (mitochondria membrane potential) [3] | cleaved-caspase 7 staining, immunofluorescence [4] | caspase activation, western blot [4] | XIAP mRNA levels [5] | XIAP protein levels [5] | subcellular location of cytochrome c [6] | IC50 [7] [µg/mL] | concentration-dependent inhibition of MTT absorbance with 50 µM necrostatin-1 and 10 µM ferrostatin-1 ([7]; U373, 24 h, 2 h pre-treatment with inhibitors)
1 | CCCCCC/C=C\CCC1(O)C=CC(=O)C=C1 [Erioquinol, (Z)-4-(dec-3′-enyl)-4-hydroxycyclohexa-2,5-dien-1-one] | DNA fragmented cells were few | translucent cytoplasm and no overall nuclei condensation | appearence of multinucleated cells | comparable decrease in TMRM fluorescence vs. control | positive cells were absent | did not display any sign of caspase 7 activity | did not significantly modify | did not significantly modify | release of cytochrome c | 1.78 (≈ 7.17 µM) | did not change
2 | CCCCCC/C=C/CCc1ccc(O)cc1 [Gibbilimbol B, (E)-4-(dec-3′-enyl)phenol] | inter-nucleosomal degradation of genomic DNA typical of late apoptotic cells | morphological hallmarks of apoptosis | nuclei of cells undergoing apoptosis | comparable decrease in TMRM fluorescence vs. control | intensive cleaved-caspase 7 staining | activation of caspase 9 and 7 | did not significantly modify | did not significantly modify | release of cytochrome c | 16.8 (≈ 72.3 µM) | 
